These results are taken from ChEMBL document CHEMBL1201862, “PubChem BioAssay data set” (2004).

Common to all, as to experiment: NCI anticancer screen, dose series, 48 h
Test [1] concerns XF498.
In test [2] the test system is DLD-1.
Test [3] deals with KM-20L2.
Test [4] has as its system HOP-18.
Test [5] deals with SNB-78.
In test [6] the test system is LXFL 529.
The test system of test [7] is DMS-114.
Test [8] concerns M19-MEL.
Test [9] relates to RXF 631.

Each structure is given as a SMILES string.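 Protocol summary: plate cells (96-well), add compound at 5 concentrations, incubate 48 h, interpolate endpoints linearly. Abbreviation: GI50, concentration required for 50% inhibition of growth.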 The source made the active and inactive calls. No stated cut-off is given here; in the data, active = GI50 up to about 1.1 µM and inactive = higher.

In the case of `CCOC(=O)C(=O)Nc1ccccc1C(F)(F)F`, the GI50 in [1] is > 100 µM (inactive); in test [2] it was > 100 µM (inactive); in [3], > 100 µM (inactive); in test [4] it was 0.9 µM (active); in [5], > 100 µM (inactive); in [6] it was > 100 µM (inactive).
Turning to `O=C1Nc2ccccc2C12CCCC2`, the GI50 in [1], in test [7], in test [2], in test [3], in test [4] and in [5] was > 100 µM (inactive) throughout. Further, the GI50 in test [8] and in test [6] was > 100 µM (inactive) throughout.
Consider `O=C(/C=C\c1ccc(Cl)c(Cl)c1)c1ccc(Cl)cc1Cl`, for which the GI50 in test [9] is 35.9 µM (inactive); in test [7] it was > 10 µM (inactive); in test [2], 5.41 µM (inactive); in [3] it was 2.69 µM (inactive); in [4] it was > 10 µM (inactive); in [5], > 10 µM (inactive). In addition, the GI50 was 18.7 µM (inactive) in [8] and 2.26 µM (inactive) in test [6].
Consider `CN1CCN2c3ccccc3CC(C#N)(C#N)C2C1` (centres undefined), for which the GI50 in test [9], in test [7], in [2], in test [3], in test [4] and in [5] was > 100 µM (inactive) in each case. The GI50 in [8] and in test [6] was > 100 µM (inactive) each time.
Turning to `COc1ccc2nccc(C3OC(=O)N4CCC(=O)CC34)c2c1` (centres undefined), the GI50 in test [9], in test [1], in test [3], in [5], in [8] and in test [6] was > 100 µM (inactive) each time.
With `Cc1c(Cl)cccc1NC(=O)c1cccc([N+](=O)[O-])c1O`, the GI50 in [9] is 13.8 µM (inactive); in test [1], 16.3 µM (inactive); in [7], 11.5 µM (inactive); in [2] it was 21.4 µM (inactive); in [3], 13.1 µM (inactive); in test [4], 2.7 µM (inactive). The results for the GI50 in [5], in [8] and in [6] were 34.1 µM (inactive), 13.8 µM (inactive) and 11.3 µM (inactive), respectively.
Turning to `O=C1C=CC(=O)c2c1c1c(c3c2C2c4ccccc4C3c3ccccc32)C2c3ccccc3C1c1ccccc12`, the GI50 is 1.75 µM (inactive) in test [1]; 1.95 µM (inactive) in test [7]; 0.982 µM (active) in test [2]; 4.46 µM (inactive) in test [3]; 1.81 µM (inactive) in [5]; 1.98 µM (inactive) in [8]. Further, the GI50 in test [6] was 1.08 µM (active).
With `CC1=C(C(=O)Nc2ccccc2C)C(/C=C/c2ccccc2)C(C(=O)Nc2ccccc2C)=C(C)N1`, the GI50 in test [9], in [1], in [2], in test [3], in test [4] and in [5] was > 100 µM (inactive) throughout. In addition, the GI50 in [8] and in test [6] was > 100 µM (inactive) each time.
With `O=C(O)/C(=C/c1ccccc1[N+](=O)[O-])c1cccs1`, the GI50 in test [9], in [1], in test [2], in test [3], in test [4] and in test [5] was > 100 µM (inactive) each time. The GI50 in [8] and in test [6] was > 100 µM (inactive) throughout.
With `CC(C)(C)N1CC2(CCCCC2)C1=O`, the GI50 in test [7], in test [2], in test [3], in test [4], in test [5] and in test [8] was > 100 µM (inactive) throughout.
Consider `COc1cc(C2C(Cl)C(=O)N2NC(=O)c2ccc(N)cc2)cc(Br)c1O` (centres undefined), for which the GI50 in test [1] is 17 µM (inactive); in test [7], 6.35 µM (inactive); in test [2], 19 µM (inactive); in [3], 17.7 µM (inactive); in test [5] it was 17.5 µM (inactive); in test [8], 17.9 µM (inactive). For the same compound, the GI50 in test [6] is 3.15 µM (inactive).
As for `COC(=O)c1ccc(NCc2cc(O)ccc2O)cc1`, the GI50 is 2.96 µM (inactive) in test [1]; 3.52 µM (inactive) in test [7]; 18.1 µM (inactive) in [2]; 28.4 µM (inactive) in test [3]; 14.2 µM (inactive) in test [4]; 15.2 µM (inactive) in test [5]. Besides, the figures for the GI50 in test [8] and in test [6] were 16.7 µM (inactive) and 5.06 µM (inactive), respectively.
For `C=C1C(=O)O[C@H](c2ccoc2)C[C@@H]1[C@@]1(C)CCCC2(C)C(=O)OCC21` (some centres undefined), the GI50 in test [1], in [7], in test [3], in test [5], in test [8] and in [6] was > 100 µM (inactive) each time.
As to `O=C(O)COc1ccc2c3c1C(=O)CCC3CO2` (centres undefined), the GI50 in [1], in [7], in [2], in [3], in [4] and in test [5] was > 100 µM (inactive) each time. For the same compound, the GI50 in [8] and in [6] was > 100 µM (inactive) in each case.
`CC[P+](C)(C)CC`: the GI50 in test [9], in test [7], in [2], in test [3], in [4] and in [5] was > 100 µM (inactive) throughout. The GI50 in test [8] and in test [6] was > 100 µM (inactive) each time.
`C[C@H](C(=O)C12CC3CC(CC(C3)C1)C2)[C@H](O)c1ccccc1`: the GI50 in test [9] is 31.2 µM (inactive); in test [1], 26 µM (inactive); in test [2] it was 45.5 µM (inactive); in test [3], 20.8 µM (inactive); in [4] it was 98.9 µM (inactive); in test [5] it was 31.6 µM (inactive). For the same compound, in [6], the GI50 is 43.8 µM (inactive).
Turning to `Cc1cn(C2CC(O)C(CO)O2)c(=O)n2nnnc12` (centres undefined), the GI50 in test [9], in test [7], in [2], in test [4], in test [5] and in [8] was > 100 µM (inactive) in each case. For the same compound, the GI50 in [6] was > 100 µM (inactive).
For `CCOC(=O)C1S/C(=N\c2ccc(OC)c(OC)c2)N=C1C` (centres undefined), the GI50 was 47.6 µM (inactive) in [9]; 29.2 µM (inactive) in test [1]; 28.5 µM (inactive) in test [7]; 31.4 µM (inactive) in test [2]; 27 µM (inactive) in test [3]; > 100 µM (inactive) in [4]. Moreover, the GI50 in test [5] was 48.5 µM (inactive); in [6], 33.3 µM (inactive).
For `O=C(O)[C@@H](NS(=O)(=O)c1ccc([N+](=O)[O-])cc1)c1ccccc1`, the GI50 in [9], in test [1], in test [2], in [3], in test [4] and in [8] was > 100 µM (inactive) in each case. In test [6], the GI50 is > 100 µM (inactive).
In the case of `CC12CC(Sc3ccccc3N1)c1ccccc1O2` (centres undefined), the GI50 in [9] is 15.1 µM (inactive); in test [1], 16.3 µM (inactive); in [7], 15.6 µM (inactive); in [2], 15.2 µM (inactive); in test [3] it was 18.4 µM (inactive); in [4], 14.1 µM (inactive). Further, the GI50 in [5] was 16.5 µM (inactive); in [8], 16.7 µM (inactive); in test [6] it was 15.2 µM (inactive).
For the compound `Cn1c2c(c3ccccc31)CCN(CCCCN1CCc3c(n(C)c4ccccc34)C1=O)C2`, the GI50 in [9] was > 100 µM (inactive); in [1] it was > 100 µM (inactive); in test [7], 73.1 µM (inactive); in [2], > 100 µM (inactive); in test [3], > 100 µM (inactive); in test [4] it was > 100 µM (inactive). The GI50 in test [5], in test [8] and in test [6] was > 100 µM (inactive) in each case.
Turning to `CC(=O)O[C@H]1CC[C@@]2(C)C(CC[C@]3(C)C2CC[C@]2(C)Oc4c(C)cc(O)cc4C[C@@H]23)C1(C)C` (some centres undefined), the GI50 was 5.16 µM (inactive) in test [9]; 7.1 µM (inactive) in test [7]; 10.4 µM (inactive) in test [2]; 5.5 µM (inactive) in [3]; 13.5 µM (inactive) in test [4]; 7.52 µM (inactive) in test [5]. Moreover, the GI50 in [8] was 11.9 µM (inactive); in [6], 3.65 µM (inactive).
In the case of `C=C1CC2OC2(C(=O)O[C@H]2CCC3[C@@H]4CCC5=CC(=O)CC[C@]5(C)C4CC[C@@]32C)C1=O` (some centres undefined), the GI50 in [1] was 5.19 µM (inactive); in test [7], 5.2 µM (inactive); in test [2], 2.64 µM (inactive); in test [3], 7.57 µM (inactive); in test [4], 5.83 µM (inactive); in [5], 8.26 µM (inactive). Also, the GI50 in [8] was 7.57 µM (inactive); in test [6], 2.18 µM (inactive).
